Results published in patent publication US10815226B2, “Heteroaryl compounds as inhibitors of necrosis, composition and application thereof” (ACCRO BIOSCIENCE INC., priority 2016, dated 2020).

Tested on: HT29 cells
Test: HT29 cell necroptosis assay (TNF-α/Smac mimetic/z-VAD induced necrosis, viability)
Type: cell-based, human
Conditions: Homo sapiens, HT-29, HT29 cells, TNF-α/Smacmimetic/z-VAD induced necrosis; values in nM

SMILES | IC50 [nM]
Cc1ncc(-c2ccc3nc(NC(=O)C4CC4)cn3c2)cc1NC(=O)OC1CCCCC1 [Compound A81, Cyclohexyl (5-(2-(cyclopropanecarboxamido)imidazo[1,2-a]pyridin-6-yl)-2-methylpyridin-3-yl)carbamate] | 9
CC(=O)Nc1nc2ccc(-c3cc(NC(=O)OC4CCCCC4)c(C)cn3)cc2s1 [Compound A51] | 73
CC(=O)Nc1nc2ccc(-c3cnc(C)c(NC(=O)OC4CCC5(CC4)CC5)c3)cc2s1 [Compound A95] | 53
CC(=O)Nc1nc2ccc(-c3cnc(C)c(NC(=O)OC4CCC(F)(F)CC4)c3)cc2s1 [Compound A59] | 689
Cc1ncc(-c2ccc3nc(NC(=O)c4ccccc4)sc3c2)cc1NC(=O)OC1CCCCC1 [Compound A104] | 60
CC(=O)Nc1nc2ccc(-c3cnc(C)c(NC(=O)OC(C)C)c3)cc2s1 [Compound A73] | 287
CC(=O)Nc1nc2ccc(-c3cnc(C)c(NC(=O)OC4CCC4)c3)cc2s1 [Compound A92] | 121
CC(=O)Nc1nc2ccc(-c3cnc(Cl)c(NC(=O)OC4CCCCC4)c3)cc2s1 [Compound A83] | 45
CC(=O)Nc1nc2ccc(-c3cnc(C#N)c(NC(=O)OC4CCCCC4)c3)cc2s1 [Compound A72] | 534
CC(=O)Nc1nc2ccc(-c3cnc(C)c(NC(=O)NC4CCCCC4)c3)cc2s1 [Compound A49] | 357
Cc1ncc(-c2ccc3nc(NC(=O)C4CC4)sc3c2)cc1NC(=O)OC1CCOCC1 [Compound A71] | 12
CC(=O)Nc1nc2ccc(-c3cc(NC(=O)OC4CCCCC4)c(C)nn3)cc2s1 [Compound A66, Cyclohexyl 6-(2-acetamidobenzo[d]thiazol-6-yl)-3-methylpyridazin-4-ylcarbamate] | 247
CCC(C)OC(=O)Nc1cc(-c2ccc3nc(NC(C)=O)sc3c2)cnc1C (centres unmarked) [Compound A86] | 87
CC(=O)Nc1nc2ccc(-c3cnc(C)c(NC(=O)OC4CCCCCC4)c3)cc2s1 [Compound A87] | 9
CC(=O)Nc1nc2ccc(-c3cnc(C)c(NC(=O)OC4CCCC4)c3)cc2s1 [Compound A47] | 124
CCOC(=O)Nc1nc2ccc(-c3cnc(C)c(NC(=O)OC4CCCCC4)c3)cc2s1 [Compound A62] | 63

Tested on: HT29 cells
Test: as above
Type: cell-based, human
Conditions: 10 μM test compound pretreated one hour, TNF-α (40 ng/mL), Smacmimetic (100 nM), z-VAD (20 μM) for 48 hours
Method: Biological in Vitro HT29 Cell Assay.
The efficacies of RIP1 inhibitors were tested in vitro using human colon cancer TH29 cells in a necroptosis assay. For the assay, Cells were added to 96-well plates and then 10 μM of the test compound was pretreated for one hour. Then the cells were treated with TNF-α (40 ng/mL), Smacmimetic (100 nM) and z-VAD (20 μM) for 48 hours, and the viability was quantified. DMSO pretreatment group was negative control, Nec-1 pretreatment group was positive control.

SMILES | HT29 Inhibition (10 μM) [%]
NCCCNc1nc2ccc(-c3cnc(Cl)c(NC(=O)c4cccc(F)c4)c3)cc2s1 [Compound A7] | 8
O=C(Nc1cc(-c2ccc3ncsc3c2)cnc1Cl)c1cccc(F)c1 [Compound A11] | 8
Cc1ncc(-c2ccc3[nH]c(=O)ccc3c2)cc1NC(=O)OC1CCCCC1 [Compound A97] | 7
CC(C)(C)OC(=O)NCCCNc1nc2ccc(-c3cnc(Cl)c(NC(=O)c4cccc(F)c4)c3)cc2s1 [Compound A6] | 5
CC(=O)Nc1ncc2ccc(-c3cnc(C)c(NC(=O)OC4CCCCC4)c3)cc2n1 [Compound A98] | 50
Cc1ncc(-c2ccc3nc(N(C)C(=O)CCCCCNC(=O)OC(C)(C)C)sc3c2)cc1NC(=O)Cc1ccccc1 [Compound A101] | 5
Cc1ncc(-c2ccc3nc(N(C)C(=O)CCCCCNC(=O)CCCCCNC(=O)CCCC[C@@H]4SC[C@@H]5NC(=O)N[C@@H]54)sc3c2)cc1NC(=O)Cc1ccccc1 [Compound A102] | 5
CNc1nc2ccc(-c3cnc(C)c(NC(=O)OC4CCCCC4)c3)cc2s1 [Compound A103] | 20
CC(=O)Nc1nc2ccc(-c3cc(NC(=O)OC4CCCCC4)ncn3)cc2s1 [Compound A76] | 5
O=C(Cc1ccccc1)Nc1cc(-c2ccc3ncsc3c2)cnc1Cl [Compound A100] | 9
O=C(CCCC[C@@H]1SC[C@@H]2NC(=O)N[C@@H]21)NCCCCCC(=O)NCCCNc1nc2ccc(-c3cnc(Cl)c(NC(=O)c4cccc(F)c4)c3)cc2s1 [Compound A9] | 8
CC(=O)Nc1nc2ccc(-c3cncc(NC(=O)Cc4cccc(F)c4)c3)cc2s1 [Compound A17] | 45
CC(=O)Nc1nc2ccc(-c3cnc(C)c(NC(=O)O[C@H]4CC[C@H](O)CC4)c3)cc2s1 [Compound A79] | 35
Cc1ncc(-c2ccc3nc(NC(=O)CCCCCNC(=O)CCCCCNC(=O)CCCC[C@@H]4SC[C@@H]5NC(=O)N[C@@H]54)sc3c2)cc1NC(=O)Cc1ccccc1 [Compound A32] | 21
CC(=O)Nc1nc2ccc(-c3ccnc(NC(=O)OC4CCCCC4)c3)cc2s1 [Compound A75] | 6
CC(=O)Nc1nc2ccc(-c3cnc(C)c(NC(=O)CC4CC4)c3)cc2s1 [Compound A42, N-(5-(2-acetamidobenzo[d]thiazol-6-yl)-2-methylpyridin-3-yl)-2-cyclopropylacetamide] | 22
CC(=O)Nc1nc2ccc(-c3cnc(C)c(NC(=O)CN4CCC(O)CC4)c3)cc2s1 [Compound A39] | 9

SMILES | HT29 Inhibition (10 μM) [%]
CC(=O)Nc1nc2ncc(-c3cnc(C)c(NC(=O)OC4CCCCC4)c3)cc2s1 [Compound A63] | 9
CC(=O)Nc1nc2ccc(-c3cnc(C)c(NC(=O)OC4CCC5(CC4)OCCO5)c3)cc2s1 [Compound A77] | 60
CC(=O)Nc1nc2ccc(-c3cccc(NC(=O)Cc4ccccc4Cl)n3)cc2s1 [Compound A35] | 1
CC(=O)Nc1nc2ccc(-c3cnc(CCCNC(=O)CCCCCNC(=O)CCCC[C@H]4SC[C@H]5NC(=O)N[C@H]54)c(NC(=O)c4cccc(F)c4)c3)cc2s1 [Compound A8] | 10
CCOC(=O)Nc1cc(-c2ccc3nc(NC(C)=O)sc3c2)cnc1C [Compound A52] | 10
CC(=O)Nc1nc2ccc(-c3cnc(C)c(NC(=O)CN4CCOCC4)c3)cc2s1 [Compound A38] | 33
CC(=O)Nc1nc2ccc(-c3cnc(C)c(NC(=O)CN4CCCC4)c3)cc2s1 [Compound A41] | 14
CC(=O)Nc1nc2ccc(-c3cnc(C)c(NC(=O)OCc4ccccc4)c3)cc2s1 [Compound A74] | 8
CC(=O)Nc1nc2ccc(-c3cnc(C)c(NC(=O)Oc4ccccc4)c3)cc2s1 [Compound A82] | 7
CC(=O)Nc1nc2ccc(-c3cncc(NC(=O)Cc4ccccc4)n3)cc2s1 [Compound A33] | 1
Cc1ncc(-c2ccc3nc(NS(C)(=O)=O)sc3c2)cc1NC(=O)OC1CCCCC1 [Compound A85] | 7
Cc1ncc(-c2ccc3nc(NCC#N)sc3c2)cc1NC(=O)OC1CCCCC1 [Compound A91] | 40
CC(=O)Nc1ncc2cc(-c3cnc(C)c(NC(=O)OC4CCCCC4)c3)ccc2n1 [Compound A96] | 8
O=C(Nc1cc(-c2ccc3nncn3c2)cnc1Cl)c1cccc(F)c1 [Compound A10] | 1
CC(=O)Nc1nc2ccc(-c3cnc(Cl)c(NC(=O)c4ccccn4)c3)cc2s1 [Compound A2] | 8
CC(=O)Nc1nc2ccc(-c3cnc(C)c(NC(=O)OC4COC4)c3)cc2s1 [Compound A93] | 8
CC(=O)Nc1nc2ccc(-c3cncc(NC(=O)Cc4ccccc4Cl)n3)cc2s1 [Compound A34] | 1
